Patent US12194140B2, “Compositions for topical treatment of microbial infections” (Hennepin Life Sciences, priority 2012, dated 2025)

Assays:
Staphylococcus aureus = assay: Spectrum of antibacterial activity of GML; type: cell-based; details: optimal growth conditions; 54 strains tested
Streptococcus sanguinis = assay: Spectrum of antibacterial activity of GML; type: cell-based; details: optimal growth conditions; 1 strain tested
Gardnerella vaginalis = assay: GML in vegetable oil, growth in Todd Hewitt broth (CFU/mL); type: cell-based; details: GML in olive, 18 hours, 37° C.
Mycobacterial species = type: cell-based
Neisseria gonorrhoeae = assay: Spectrum of antibacterial activity of GML; type: cell-based; details: optimal growth conditions; 1 strain tested
[1] = system: Staphylococcus aureus MNPE (methicillin sensitive) and MW2 (methicillin resistant); assay: GML in vegetable oil, growth in Todd Hewitt broth (CFU/mL); type: cell-based; details: both strains; GML in olive, palm or corn oil (all 3); 18 hours, 37° C.
Enterobacter aerogenes = assay: Spectrum of antibacterial activity of GML; type: cell-based; details: optimal growth conditions; 1 strain tested
Burkholderia cenocepacia = assay: Spectrum of antibacterial activity of GML; type: cell-based; details: optimal growth conditions; 1 strain tested
[2] = system: Mycobacterium tuberculosis; type: cell-based
Escherichia coli = assay: Spectrum of antibacterial activity of GML; type: cell-based; details: optimal growth conditions; 2 strains tested
Streptococcus pyogenes = assay: Spectrum of antibacterial activity of GML; type: cell-based; details: optimal growth conditions; 4 strains tested
Pseudomonas aeruginosa = assay: Spectrum of antibacterial activity of GML; type: cell-based; details: optimal growth conditions; 1 strain tested
Pasteurella multocida = assay: Spectrum of antibacterial activity of GML; type: cell-based; details: optimal growth conditions; 1 strain tested
Bacteroides fragilis = assay: Spectrum of antibacterial activity of GML; type: cell-based; details: optimal growth conditions; 2 strains tested
S. aureus 128 (TSST-1) = type: cell-based
[3] = system: Streptococcus pneumoniae Serotype III; assay: Spectrum of antibacterial activity of GML; type: cell-based; details: optimal growth conditions; 2 strains tested
[4] = system: S. aureus strains MN8, MNWH, MW2; assay: Biofilm formation in 96 well microtiter plates; type: cell-based
S. aureus biofilm = assay: Treatment of previously formed biofilms; type: cell-based; details: 48 hour biofilm; 500 μg/mL GML for 60 minutes at 37° C.
Fusobacterium species = assay: Spectrum of antibacterial activity of GML; type: cell-based; details: optimal growth conditions; 1 strain tested
S. pyogenes = assay: Bactericidal activity of GML versus lauric acid; type: cell-based; details: 24 hours, 37° C.
Shigella sonnei = type: cell-based
[5] = system: non-typable Haemophilus influenzae; type: cell-based
Mycobacterium phlei = assay: Spectrum of antibacterial activity of GML; type: cell-based; details: optimal growth conditions; 1 strain tested
E. coli (Watson strain) = assay: GML and EDTA on the growth of E. coli; type: cell-based; details: 24 hours; EDTA 0.05 M to 0.00005 M; GML 100 μg/mL
Method: E. coli (Watson strain) was adjusted to I.2×10^7/mL in Todd Hewitt media. […] Cultures were incubated with shaking (200 RPM) for 24 hours, at which time samples were removed for plate counting. To further assess the combined effects of GML and EDTA, the experiment was carried out as above, and the relative effects on the growth of E. coli of EDTA alone or the combination of GML and EDTA were assessed in direct comparison to GML alone.

Group C Streptococcus = assay: Spectrum of antibacterial activity of GML; type: cell-based; details: optimal growth conditions; 1 strain tested
[6] = system: Haemophilus influenzae Non-typable; assay: Spectrum of antibacterial activity of GML; type: cell-based; details: optimal growth conditions; 2 strains tested
Group F Streptococcus = assay: Spectrum of antibacterial activity of GML; type: cell-based; details: optimal growth conditions; 1 strain tested
S. aureus MN8 = assay: Bactericidal activity of GML versus lauric acid; type: cell-based; details: 24 hours, 37° C.; bactericidal = at least 3 log reduction
[7] = system: coagulase-negative staphylococci; assay: Decolonization of anterior nares; type: in vivo, human; details: 5% w/v GML in non-aqueous gel
S. aureus strain MN8 = assay: Decolonization of contaminated surgical incision sites; type: in vivo, New Zealand white rabbits; details: GML 5% w/v non-aqueous gel swabbed
Campylobacter jejuni = assay: Spectrum of antibacterial activity of GML; type: cell-based; details: optimal growth conditions; 1 strain tested
H. influenzae biofilm = assay: Treatment of previously formed biofilms; type: cell-based; details: 48 hour biofilm; 500 μg/mL GML for 60 minutes at 37° C.
Method: Supernatants were removed and bactericidal activity was determined by measuring CFU/mL (FIG. 9, left; # significant reduction in mean absorbance at 595 nm compared to no GML control, p<0.01). Wells were then washed and stained with crystal violet as described above.

Streptococcus agalactiae = assay: Spectrum of antibacterial activity of GML; type: cell-based; details: optimal growth conditions; 3 strains tested
S. aureus (strain MN8) = assay: Effect of non-aqueous gel on antimicrobial activity of GML; type: cell-based; details: GML alone in Todd Hewitt broth; 24 hours
[8] = system: Bordetella bronchiseptica; assay: Spectrum of antibacterial activity of GML; type: cell-based; details: optimal growth conditions; 1 strain tested
Klebsiella pneunoniae = assay: Spectrum of antibacterial activity of GML; type: cell-based; details: optimal growth conditions; 1 strain tested
Listeria monocytogenes = assay: Spectrum of antibacterial activity of GML; type: cell-based; details: optimal growth conditions; 1 strain tested
Mycoplasma hominis = assay: Spectrum of antibacterial activity of GML; type: cell-based; details: optimal growth conditions; 1 strain tested
Candida albicans = assay: GML in vegetable oil, growth in Todd Hewitt broth (CFU/mL); type: cell-based; details: GML in olive, palm or corn oil (all 3); 18 hours, 37° C.
Streptococcus suis = assay: Spectrum of antibacterial activity of GML; type: cell-based; details: optimal growth conditions; 1 strain tested
[9] = system: Prevotella melaninogenica; assay: Spectrum of antibacterial activity of GML; type: cell-based; details: optimal growth conditions; 1 strain tested

Glycerol monolaurate [GML]
Average Bactericidal Concentration of GML (Staphylococcus aureus): 300 µg/mL
Average Bactericidal Concentration of GML (Streptococcus sanguinis): 50 µg/mL
GML concentration at which growth was completely or nearly completely inhibited (Gardnerella vaginalis; palm or corn oil (all 3)): ≥ 20 µg/mL
GML concentration at which CFU/mL were reduced (Gardnerella vaginalis; palm or corn oil (all three)): ≤ 10 µg/mL
GML concentration at which organisms were killed (Mycobacterial species): ≥ 50 µg/mL
Average Bactericidal Concentration of GML (Neisseria gonorrhoeae): 20 µg/mL
GML concentration at which growth was inhibited [1]: 100 µg/mL
Average Bactericidal Concentration of GML (Enterobacter aerogenes): Not Susceptible
Average Bactericidal Concentration of GML (Burkholderia cenocepacia): 500 µg/mL
Average Bactericidal Concentration of GML [2]: 100 µg/mL
Average Bactericidal Concentration of GML (Escherichia coli): Not Susceptible
Average Bactericidal Concentration of GML (Streptococcus pyogenes): 30 µg/mL
Average Bactericidal Concentration of GML (Pseudomonas aeruginosa): Not Susceptible
Average Bactericidal Concentration of GML (Pasteurella multocida): 500 µg/mL
Average Bactericidal Concentration of GML (Bacteroides fragilis): 50 µg/mL
TSST-1 in tampon sacs (Western immunoblot) (S. aureus 128 (TSST-1)): not detected
Average Bactericidal Concentration of GML [3]: 10 µg/mL
fold lower GML concentration inhibiting biofilm formation (crystal violet, absorbance 595 nm) than necessary to inhibit bacterial growth ([4]; 24 or 48 hours): 10 fold
GML concentration at which growth was completely inhibited (CFU/mL) ([4]; all three strains, 24 and 48 hours): 500 µg/mL
bactericidal activity on previously formed biofilm (CFU/mL) (S. aureus biofilm): killed
biofilm material attached to the wells (crystal violet staining) (S. aureus biofilm): nearly completely removed biofilm material
Average Bactericidal Concentration of GML (Fusobacterium species): 50 µg/mL
fold more bactericidal for S. pyogenes than for S. aureus (S. pyogenes): 5 fold
fold lower bactericidal concentration than lauric acid (S. pyogenes; 7% CO2, bactericidal = at least 3 log reduction): 500 fold
Average Bactericidal Concentration of GML (Shigella sonnei): Not Susceptible
GML concentration inhibiting biofilm formation (crystal violet, absorbance 595 nm) [5]: ≤ 1.0 µg/mL
bactericidal GML concentration in the context of a biofilm (CFU/mL) [5]: 50 µg/mL
Average Bactericidal Concentration of GML (Mycobacterium phlei): 100 µg/mL
anti-bacterial activity on growth of E. coli (CFU/mL) (E. coli (Watson strain)): did not exhibit any bactericidal activity
Average Bactericidal Concentration of GML (Group C Streptococcus): 30 µg/mL
Average Bactericidal Concentration of GML [6]: 50 µg/mL
Average Bactericidal Concentration of GML (Group F Streptococcus): 20 µg/mL
fold lower bactericidal concentration than lauric acid (S. aureus MN8): 200 fold
coagulase-negative staphylococcal counts in both nares after treatment ([7]; swab, three subjects, 4 hours or more up to 24 hour): significantly (p<0.05) reduced
coagulase-negative staphylococci in right nare after 3 days ([7]; one subject, initially 560): 8 CFU/mL
coagulase-negative staphylococci in left nare after 3 days ([7]; one subject, initially 880): 0 CFU/mL
S. aureus CFU/mL at surgical incision sites (S. aureus strain MN8; 24 hour time-point, PBS control 8.8 log CFU/mL): no CPUs were detectable
inflammation at the surgical site (redness) (S. aureus strain MN8; 24 hours, versus PBS): less inflammation
Average Bactericidal Concentration of GML (Campylobacter jejuni): 1 µg/mL
bactericidal activity on previously formed biofilm (CFU/mL) (H. influenzae biofilm): killed
biofilm material attached to the wells (crystal violet staining) (H. influenzae biofilm): nearly completely removed biofilm material
Average Bactericidal Concentration of GML (Streptococcus agalactiae): 30 µg/mL
GML concentration inhibiting growth (CFU/mL) (S. aureus (strain MN8)): ≥ 100 µg/mL
Average Bactericidal Concentration of GML [8]: 1 µg/mL
Average Bactericidal Concentration of GML (Klebsiella pneunoniae): Not Susceptible
Average Bactericidal Concentration of GML (Listeria monocytogenes): 50 µg/mL
Average Bactericidal Concentration of GML (Mycoplasma hominis): 1 µg/mL
GML concentration at which growth was inhibited (Candida albicans): 100 µg/mL
Average Bactericidal Concentration of GML (Streptococcus suis): 50 µg/mL
Average Bactericidal Concentration of GML [9]: 50 µg/mL
